What follows are compounds tested against CXCR7 (Homo sapiens (Human), UniProt P25106) (assay: PathHunter CHO-K1 CXCR7 b-arrestin assay (agonistic activity)). Conditions: PathHunter CHO-K1 CXCR7 b-arrestin cell line.
Format: cell-based
Procedure, shortened: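 CHO-K1 cells co-expressing ProLink-tagged CXCR7 and EA-fused β-arrestin 2 (enzyme fragment complementation); compounds added in HBSS/20 mM HEPES/0.2% BSA after 3–4 h in OPTIMEM, 90 min at 37 °C. Chemiluminescent β-gal signal read after 1 h detection at room temperature; EC50 reported as geometric mean of several measurements.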

Chain of CXCR7 (P25106 whole entry): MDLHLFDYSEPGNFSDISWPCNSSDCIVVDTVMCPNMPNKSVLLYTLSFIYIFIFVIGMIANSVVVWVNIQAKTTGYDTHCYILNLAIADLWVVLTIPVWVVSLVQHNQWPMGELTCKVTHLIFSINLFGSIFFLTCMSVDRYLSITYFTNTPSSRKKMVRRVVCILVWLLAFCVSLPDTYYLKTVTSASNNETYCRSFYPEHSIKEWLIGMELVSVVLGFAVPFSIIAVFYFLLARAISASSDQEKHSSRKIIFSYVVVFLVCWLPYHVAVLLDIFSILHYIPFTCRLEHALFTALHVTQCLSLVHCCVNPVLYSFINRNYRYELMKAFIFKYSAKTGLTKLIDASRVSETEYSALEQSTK
Chain of CXCR7 (P32121 whole entry partner): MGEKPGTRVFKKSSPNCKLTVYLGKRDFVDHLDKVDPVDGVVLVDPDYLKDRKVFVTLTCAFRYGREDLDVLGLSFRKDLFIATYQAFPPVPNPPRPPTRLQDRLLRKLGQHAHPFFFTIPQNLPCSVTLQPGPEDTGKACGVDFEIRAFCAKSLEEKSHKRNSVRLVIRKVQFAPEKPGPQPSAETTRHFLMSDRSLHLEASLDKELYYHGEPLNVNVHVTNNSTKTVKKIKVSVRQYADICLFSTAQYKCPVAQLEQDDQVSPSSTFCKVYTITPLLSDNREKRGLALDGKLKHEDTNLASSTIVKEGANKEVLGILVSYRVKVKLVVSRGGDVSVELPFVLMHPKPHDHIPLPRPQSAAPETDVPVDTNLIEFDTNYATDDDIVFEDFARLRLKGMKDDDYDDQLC

| Structure (SMILES) | EC50 |
| --- | --- |
| Cc1c(Cl)cccc1C(=O)Nc1cccc(CN2CCC(C(=O)NC3CCCCC3)CC2)c1 [Example 1.120] | 35 nM |
| Cc1cc(Cl)ccc1C(=O)Nc1cccc(CN2CCC(C(=O)NC3CCCCC3)CC2)c1 [Example 1.121] | 5 nM |
| COc1ccc(C(=O)Nc2cccc(CN3CCC(C(=O)NC4CCCCC4)CC3)c2)cc1C [Example 1.122] | 15 nM |
| COc1ccc(C(=O)Nc2cccc(CN3CCC(C(=O)NC4CCCCC4)CC3)c2)cc1F [Example 1.123] | 4 nM |
| COc1cc(F)cc(C(=O)Nc2cccc(CN3CCC(C(=O)NC4CCCCC4)CC3)c2)c1 [Example 1.124] | 5 nM |
| COc1cc(OC)cc(C(=O)Nc2cccc(CN3CCC(C(=O)NC4CCCCC4)CC3)c2)c1 [Example 1.125] | 10 nM |
| COc1ccc(C(=O)Nc2cccc(CN3CCC(C(=O)NC4CCCCC4)CC3)c2)cc1OC [Example 1.126] | 70 nM |
| O=C(Nc1cccc(CN2CCC(C(=O)NC3CCCCC3)CC2)c1)c1c(F)cccc1F [Example 1.127] | 36 nM |
| O=C(Nc1cccc(CN2CCC(C(=O)NC3CCCCC3)CC2)c1)c1cccc(F)c1F [Example 1.128] | 5 nM |
| O=C(Nc1cccc(CN2CCC(C(=O)NC3CCCCC3)CC2)c1)c1ccc(F)c(F)c1 [Example 1.129] | 2 nM |
| O=C(Nc1cccc(CN2CCC(C(=O)NC3CCCCC3)CC2)c1)c1ccc(Cl)cc1F [Example 1.130] | 7 nM |
| O=C(Nc1cccc(CN2CCC(C(=O)NC3CCCCC3)CC2)c1)c1cc(F)cc(Cl)c1 [Example 1.131] | 4 nM |
| O=C(Nc1cccc(CN2CCC(C(=O)NC3CCCCC3)CC2)c1)c1ccc(Cl)c(F)c1 [Example 1.132] | 10 nM |
| O=C(Nc1cccc(CN2CCC(C(=O)NC3CCCCC3)CC2)c1)c1ccc(F)cc1Cl [Example 1.133] | 7 nM |
| O=C(Nc1cccc(CN2CCC(C(=O)NC3CCCCC3)CC2)c1)c1ccc(C(F)(F)F)cc1F [Example 1.134] | 8 nM |
| O=C(Nc1cccc(CN2CCC(C(=O)NC3CCCCC3)CC2)c1)c1cc(C(F)(F)F)ccc1F [Example 1.135] | 7 nM |
| O=C(Nc1cccc(CN2CCC(C(=O)NC3CCCCC3)CC2)c1)c1cc(C(F)(F)F)cc(C(F)(F)F)c1 [Example 1.136] | 43 nM |
| O=C(Nc1cccc(CN2CCC(C(=O)NC3CCCCC3)CC2)c1)c1cc(Cl)ccc1Cl [Example 1.137] | 8 nM |
| O=C(Nc1cccc(CN2CCC(C(=O)NC3CCCCC3)CC2)c1)c1ccc(Cl)cc1Cl [Example 1.138] | 6 nM |

| Structure (SMILES) | EC50 |
| --- | --- |
| O=C(Nc1cccc(CN2CCC(C(=O)NC3CCCCC3)CC2)c1)c1cc(Cl)cc(Cl)c1 [Example 1.139] | 22 nM |
| O=C(Nc1cccc(CN2CCC(C(=O)NC3CCCCC3)CC2)c1)c1ccc(Cl)c(Cl)c1 [Example 1.140] | 5 nM |
| O=C(Nc1cccc(CN2CCC(C(=O)NC3CCCCC3)CC2)c1)c1cnccn1 [Example 1.141] | 2 nM |
| Cc1cnc(C(=O)Nc2cccc(CN3CCC(C(=O)NC4CCCCC4)CC3)c2)cn1 [Example 1.142] | 2 nM |
| O=C(Nc1cccc(CN2CCC(C(=O)NC3CCCCC3)CC2)c1)c1ccc(Cl)c2c1CCO2 [Example 1.143] | 5 nM |
| CN(C)c1cccc(C(=O)Nc2cccc(CN3CCC(C(=O)NC4CCCCC4)CC3)c2)c1 [Example 1.144] | 73 nM |
| O=C(Nc1cccc(CN2CCC(C(=O)NC3CCCCC3)CC2)c1)c1c(F)cccc1C(F)(F)F [Example 1.145] | 425 nM |
| O=C(Nc1cccc(CN2CCC(C(=O)NC3CCCCC3)CC2)c1)c1cc2cccnc2[nH]1 [Example 1.146] | 8 nM |
| O=C(Nc1cccc(CN2CCC(C(=O)NC3CCCCC3)CC2)c1)c1cncc(C2CC2)c1 [Example 1.147] | 5 nM |
| O=C(Nc1cccc(CN2CCC(C(=O)NC3CCCCC3)CC2)c1)c1ccc(CCF)cc1 [Example 1.148] | 5 nM |
| O=C(Nc1cccc(CN2CCC(C(=O)NC3CCCCC3)CC2)c1)C1CC1 [Example 1.149] | 81 nM |
| O=C(Nc1cccc(CN2CCC(C(=O)NC3CCCCC3)CC2)c1)C1CCC1 [Example 1.150] | 25 nM |
| O=C(Nc1cccc(CN2CCC(C(=O)NC3CCCCC3)CC2)c1)C1CCCCC1 [Example 1.151] | 10 nM |
| O=C(Nc1cccc(CN2CCC(C(=O)NC3CCCCC3)CC2)c1)C1CCCCCC1 [Example 1.152] | 10 nM |
| O=C(Nc1cccc(CN2CCC(C(=O)NC3CCCCC3)CC2)c1)c1ccc(C(F)(F)C(F)(F)F)cc1 [Example 1.153] | 10 nM |
| CCc1cncc(C(=O)Nc2cccc(CN3CCC(C(=O)NC4CCCCC4)CC3)c2)c1 [Example 1.154] | 2 nM |
| O=C(Nc1cccc(CN2CCC(C(=O)NC3CCCCC3)CC2)c1)c1cc(C(F)(F)F)ccn1 [Example 1.155] | 12 nM |
| O=C(Nc1cccc(CN2CCC(C(=O)NC3CCCCC3)CC2)c1)c1ccc(F)cc1 [Example 1.156] | 2 nM |
| O=C(Nc1cc(CN2CCC(C(=O)NC3CCCCC3)CC2)ccc1Cl)c1ccncn1 [Example 1.157] | 2 nM |

| Structure (SMILES) | EC50 |
| --- | --- |
| Cc1ccc(C(=O)Nc2cc(CN3CCC(C(=O)NC4CCCCC4)CC3)ccc2Cl)s1 [Example 1.158] | 14 nM |
| COc1ccc(C(=O)Nc2cc(CN3CCC(C(=O)NC4CCCCC4)CC3)ccc2Cl)cc1 [Example 1.159] | 14 nM |
| O=C(Nc1cc(CN2CCC(C(=O)NC3CCCCC3)CC2)ccc1Cl)c1ccc(Cl)cc1 [Example 1.160] | 5 nM |
| O=C(Nc1cccc(CN2CCC(C(=O)NC3CCCCC3)CC2)c1Cl)c1ccc(Cl)cc1 [Example 1.162] | 2780 nM |
| Cc1ccc(C(=O)Nc2cccc(CN3CCC(C(=O)NC4CCCCC4)CC3)c2Cl)s1 [Example 1.163] | 386 nM |
| CC(c1cccc(NC(=O)c2ccc(Cl)cc2)c1)N1CCC(C(=O)NC2CCCCC2)CC1 (stereo not drawn) [Example 1.164] | 8 nM |
| CC(c1cccc(NC(=O)c2ccccc2)c1)N1CCC(C(=O)NC2CCCCC2)CC1 (stereo not drawn) [Example 1.165] | 23 nM |
| CC(c1cccc(NC(=O)c2ccc(F)cc2)c1)N1CCC(C(=O)NC2CCCCC2)CC1 (stereo not drawn) [Example 1.166] | 10 nM |
| COc1ccc(C(=O)Nc2cccc(C(C)N3CCC(C(=O)NC4CCCCC4)CC3)c2)cc1 (stereo not drawn) [Example 1.167] | 25 nM |
| O=C(Nc1cccc(CN2CCC(C(=O)NC3CC3)CC2)c1)c1ccc(F)cc1 [Example 1.199] | 3 nM |
| O=C(Nc1cccc(CN2CCC(C(=O)NC3CC3)CC2)c1)c1cc(Cl)ccn1 [Example 1.200] | 16 nM |
| Cc1cccc(C(=O)Nc2cccc(CN3CCC(C(=O)NC4CC4)CC3)c2)n1 [Example 1.201] | 3 nM |
| Cc1cc(C(=O)Nc2cccc(CN3CCC(C(=O)NC4CC4)CC3)c2)ccn1 [Example 1.203] | 56 nM |
| O=C(Nc1cccc(CN2CCC(C(=O)NC3CC3)CC2)c1)c1cncc(F)c1 [Example 1.204] | 47 nM |
| O=C(Nc1cccc(CN2CCC(C(=O)NC3CC3)CC2)c1)c1ccc(F)cn1 [Example 1.205] | 2 nM |
| O=C(Nc1cccc(CN2CCC(C(=O)NC3CCCC3)CC2)c1)c1ccc(F)cc1 [Example 1.206] | 0.9 nM |
| O=C(Nc1cccc(CN2CCC(C(=O)NC3CCCC3)CC2)c1)c1ccc(F)cn1 [Example 1.207] | 0.8 nM |
| O=C(Nc1cccc(CN2CCC(C(=O)NC3CCCC3)CC2)c1)c1cccc(C(F)(F)F)n1 [Example 1.208] | 0.6 nM |
| O=C(Nc1cccc(CN2CCC(C(=O)NC3CCCC3)CC2)c1)c1cncc(Cl)c1 [Example 1.209] | 1 nM |
